The values that follow come from US20240390417A1, “MNO NANOMATERIAL BASED INHIBITORS OF INFLAMMATION AND SARS-COV-2 VIRAL REPLICATION” (Duke University, priority 2015, published 2024).

The structures appear in SMILES notation.

One data set relates to calf thymus DNA. The experiment in a line: PicoGreen DNA-binding assay. The conditions noted are these: TE buffer, unbound PicoGreen-labeled DNA. As for the experimental part:
The fluorescence intensity of the unbound Picogreen®-DNA complex at 520 nm was measured with a multiwell plate reader via excitation at 490 nm.
Inflammatory circulating cfDNA released by PTT-damaged host cells might cause a severe inflammatory response, which may be mitigated by the scavenging of cfDNA. Therefore, to interrogate the cfDNA scavenging ability of the various nanoparticles, the inventors investigated the calf thymus DNA binding affinity of the nanoparticles in Tris-EDTA (TE) buffer with and without 10% FBS by measuring unbound PicoGreen®-labeled DNA (FIGS. 5C and 5D).

Another data set deals with 4T1 tumor-bearing mice. Description: PTT-induced inflammation, 4T1 metastasis tumor model. The note with it: intravenous three times per week. As for the experimental part:
The fluorescent signal intensity was recorded on the IVIS® instrument at different time intervals.
The ability of the MnO and MnO@Cucumin nanoparticles to mitigate the PTT-induced inflammatory response was examined on 4T1 tumor-bearing mice. […] The 4T1 tumor-bearing mice received photothermal therapy first, and then were further treated with different formulations by intravenous injection three times per week.

Turning to `COc1cc(/C=C/C(=O)CC(=O)/C=C/c2ccc(O)c(OC)c2)ccc1O` [curcumin], the DNA binding affinity result in the data set with calf thymus DNA is recorded as “negligible DNA binding ability”. Further, in the data set on 4T1 tumor-bearing mice (after laser (PTT)), the body weight result is “increased body weight”; the “tumor recurrence and metastasis” value is “inhibited tumor recurrence and metastasis”. Besides, in the data set on 4T1 tumor-bearing mice (without laser), the “effect on body weight of the mice” value is “did not show obvious effects” and the “effect on size of the tumors” value is on record as “did not show obvious effects”.

In the case of `O=C(OC[C@H]1O[C@@H](OC(=O)c2cc(O)c(O)c(OC(=O)c3cc(O)c(O)c(O)c3)c2)[C@H](OC(=O)c2cc(O)c(O)c(OC(=O)c3cc(O)c(O)c(O)c3)c2)[C@@H](OC(=O)c2cc(O)c(O)c(OC(=O)c3cc(O)c(O)c(O)c3)c2)[C@@H]1OC(=O)c1cc(O)c(O)c(OC(=O)c2cc(O)c(O)c(O)c2)c1)c1cc(O)c(O)c(OC(=O)c2cc(O)c(O)c(O)c2)c1` [tannic acid], the DNA binding affinity entry in the data set on calf thymus DNA is reported as “can bind to DNA”.
